Legend:
hA1AR = biological target: T1, hA1AR (Homo sapiens, UniProt P30542); conditions: percent inhibition of specific radioligand binding at 10 μM; ref [11]; cited from earlier work
T1 sequence (P30542 1-326): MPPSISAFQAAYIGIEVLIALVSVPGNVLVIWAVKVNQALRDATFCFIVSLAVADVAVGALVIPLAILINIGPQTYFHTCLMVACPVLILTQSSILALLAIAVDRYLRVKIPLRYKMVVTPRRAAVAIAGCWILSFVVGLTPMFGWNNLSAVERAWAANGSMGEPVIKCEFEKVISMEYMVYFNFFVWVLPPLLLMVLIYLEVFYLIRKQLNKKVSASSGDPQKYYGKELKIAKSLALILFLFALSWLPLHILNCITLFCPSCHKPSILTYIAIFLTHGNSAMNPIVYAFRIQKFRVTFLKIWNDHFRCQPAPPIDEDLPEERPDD

hA2AAR [1] = biological target: T2, hA2AAR (Homo sapiens, UniProt P29274); conditions: compared to the standard CGS21680; cited from earlier work
hA2BAR = biological target: T3, hA2BAR (Homo sapiens, UniProt P29275); conditions: read-out: EC50, cyclic AMP accumulation at hA2BAR; CHO cells; cited from earlier work
T3 sequence (P29275 1-332): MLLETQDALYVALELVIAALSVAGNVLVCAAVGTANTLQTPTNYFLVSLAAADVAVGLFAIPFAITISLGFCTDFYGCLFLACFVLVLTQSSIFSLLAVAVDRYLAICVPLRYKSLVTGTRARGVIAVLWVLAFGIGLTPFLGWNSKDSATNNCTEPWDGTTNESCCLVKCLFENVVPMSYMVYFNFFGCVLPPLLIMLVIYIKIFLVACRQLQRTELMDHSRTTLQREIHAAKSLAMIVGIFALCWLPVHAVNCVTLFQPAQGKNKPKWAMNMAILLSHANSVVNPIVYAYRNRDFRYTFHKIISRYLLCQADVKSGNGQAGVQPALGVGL

hA2AAR [2] = biological target: T2, hA2AAR; assay: Radioligand binding assay at human A2A receptor; conditions: ratio of Ki values
hA2AAR [3] = biological target: T2, hA2AAR; conditions: percent inhibition of specific radioligand binding at 10 μM; ref [11]; cited from earlier work

T2 sequence (P29274 whole entry): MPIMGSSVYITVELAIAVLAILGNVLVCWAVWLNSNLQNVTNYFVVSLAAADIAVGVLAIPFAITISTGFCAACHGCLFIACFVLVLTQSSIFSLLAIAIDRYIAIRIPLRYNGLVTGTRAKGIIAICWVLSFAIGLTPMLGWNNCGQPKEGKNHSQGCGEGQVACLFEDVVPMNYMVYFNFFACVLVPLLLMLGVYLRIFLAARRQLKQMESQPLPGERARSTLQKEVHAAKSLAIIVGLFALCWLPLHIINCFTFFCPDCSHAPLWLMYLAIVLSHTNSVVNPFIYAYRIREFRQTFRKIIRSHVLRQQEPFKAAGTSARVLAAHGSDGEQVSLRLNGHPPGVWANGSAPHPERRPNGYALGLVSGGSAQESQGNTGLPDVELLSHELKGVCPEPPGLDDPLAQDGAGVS

SMILES	Affinity (% inhibition) hA1 (hA1AR) [%]	agonist efficacy at hA2AAR (hA2AAR [1])	EC50 (hA2BAR) [µM]	decrease of hA2AAR binding affinity in comparison to 4g (hA2AAR [2]) [fold]	Affinity (% inhibition) hA2A (hA2AAR [3]) [%]
CCCCC#Cc1nc(N)c2ncn([C@@H]3SCC(O)C3O)c2n1 (stereo in doubt) [Compound 4g, (−)-(2R,3S,4R)-2-(6-Amino-2-(hex-1-ynyl)-9H-purin-9-yl)tetrahydrothiophene-3,4-diol]	39 ± 10	full agonist	~10		
CCCCC#Cc1nc(NCc2cccc(Cl)c2)c2ncn([C@@H]3SCC(O)C3O)c2n1 (stereo in doubt) [Compound 4i, (−)-(2R,3S,4R)-2-(6-(3-Chlorobenzylamino)-2-(hex-1-ynyl)-9H-purin-9-yl)tetrahydrothiophene-3,4-diol]				520	
CCCCC#Cc1nc2c(N)ncnc2n1[C@@H]1SCC(O)C1O (stereo in doubt) [Compound 4o, (−)-(2R,3S,4R)-2-(6-Amino-8-(hex-1-ynyl)-9H-purine-9-yl)-tetrahydrothiophene-3,4-diol]	49.3 ± 4.9				46.5 ± 4.3
CCCC/C=C/c1nc2c(N)ncnc2n1[C@@H]1SCC(O)C1O (stereo in doubt) [Compound 4r, (−)-(2R,3S,4R)-2-(6-Amino-8-(hex-1-enyl)-9H-purine-9-yl)-tetrahydrothiophene-3,4-diol]	3.7 ± 2.9				22.8 ± 6.4
CCCC/C=C/c1nc(N)c2ncn([C@@H]3SC[C@@H](O)[C@H]3O)c2n1 [Compound 4m]	16.2 ± 8.4				

Source: publication PMC3266722 (Journal of Medicinal Chemistry, 2011)
